The target in one test is T1, PLK-1 (Homo sapiens, UniProt P53350).
T1 construct: His tag (N, cleaved yes); TEV cleavage site (N, cleaved yes); made in house; host or cells: High5 insect cells (baculovirus generated in Sf9)
The experiment in a line: Biochemical assay for inhibitors of PLK-1 kinase activity (33P trans-phosphorylation, Dowex). As to conditions: PLK-1 3 nM, 40 microM ATP, 85 microM alpha-casein. From the text: Cloning, Expression and Purification of Recombinant PLK1 Kinase Domain.
PLK1 kinase domain (corresponding to residues 2-345 of the full length sequence, see Swiss-Prot accession number P53350) was PCR amplified from the full-length human PLK1 gene purchased from imaGenes as clone IRATp970A078D.
For cloning purposes, the oligonucleotides included attB sites in order to obtain an attB-flanked PCR product suitable for cloning using the Gateway® technology (Invitrogen). Furthermore, for purification purposes, forward primer included a TEV® cleavage site (Amersham Biosciences). The resulting PCR product was cloned in the pDONR221 plasmid and then transferred in the baculovirus expression vector pVL1393 (Invitrogen) Gateway®-modified. For expression and purification purposes, a His tag was added N-terminal to the PLK kinase domain. Cloning was performed according to the protocols described in the Gateway® manual.
Baculoviruses were generated by cotransfecting Sf9 insect cells with the expression vector and the viral DNA using the BaculoGold® transfection kit (Pharmingen). Viral supernatant was recovered after 5 days and subjected to 3 rounds of amplification to increase viral titer. Recombinant protein was produced by infecting High5 insect cells. After 48 hours of infection, cells were recovered, pelletted and freezed at −80° C. For purification of recombinant protein, pellet was thawed, resuspended in lysis buffer (PBS, NaCl 150 mM, CHAPS 0.1%, DTT 20 mM, glycerol 10%, protease inhibitors) and lysed by sonication. Lysate was cleared by centrifugation and loaded on a Nichel affinity column. After extensive wash, recombinant protein was cleaved and eluted by incubation with TEV® protease.
Biochemical Assay for Inhibitors of PLK-1 Kinase Activity
The inhibitory activity of putative kinase inhibitors and the potency of selected compounds were determined using a trans-phosphorylation assay.
Specific peptide or protein substrates are trans-phosphorylated by their specific serine-threonine or tyrosine kinase, in the presence of ATP traced with ^33P-γ-ATP, and in the presence of their own optimal buffer and cofactors.
At the end of the phosphorylation reaction, more than 98% cold ATP and radioactive ATP is captured by an excess of the ion exchange dowex resin; the resin then settles down to the bottom of the reaction plate by gravity.
Supernatant, containing the phosphorylated substrate, is subsequently withdrawn and transferred into a counting plate, then evaluated by β-counting.
Kinase buffer was composed of 50 mM HEPES pH 7.9 containing 10 mM MnCl2, 1 mM DTT, 3 microM NaVO3, and 0.2 mg/mL BSA, 10 mM β-glycerophosphate.
The kinase assay was run with a final enzyme concentration PLK-1 of 3 nM, in presence of 40 microM ATP, 3 nM ^33P-γ-ATP and 85 microM substrate alpha-casein, SIGMA, #C-3240.
1) 3× Enzyme mix (done in Kinase Buffer 3×), 5 microL/well
2) 3× substrate and ATP mix (done in ddH2O), together with ^33P-γ-ATP, 5 microL/well
3) 3× test compounds (diluted into ddH2O—3% DMSO)—5 microL/well
For % inhibition studies, individual dilution plates at 1 mM, 100 microM and 10 microM are prepared in 100% DMSO, then diluted at a 3× concentration (30, 3 and 0.3 microM) in ddH2O, 3% DMSO. A Multimek 96 (Beckman) is used for dilutions and compound pipetting into the test plates
For IC50 determination, compounds are received as 1 mM, 100% DMSO solutions, plated into the first column of a microtiter plate (A1 to G1), 100 microL.
A Biomek 2000 (Beckman) is used for serial 1:3 dilutions in water, 3% DMSO, from column A1 to A10 and for all the seven compounds in the plate. In a standard experiment, the highest concentration of all compounds is 30 microM, then diluted in the final test mixture down to 10 microM. […]

The test system of test [1] is A2780 human ovarian cancer cells. The experiment in a line: In vitro cell proliferation assay, A2780 (CellTiter-Glo). To be noted: 72 hours. In kind it is cell-based. The protocol:
In Vitro Cell Proliferation Assay
A2780 human ovarian and MCF7 human breast cancer cells (1250 cells/well) were seeded in white 384 well-plates in complete medium (RPMI1640 or EMEM plus 10% Fetal bovine serum) and treated with compounds dissolved in 0.1% DMSO, 24 h after seeding. The cells were incubated at 37° C. and 5% CO2 and after 72 hours the plates were processed using CellTiter-Glo assay (Promega) following the manufacturer's instruction.
CellTiter-Glo is a homogenous method based on the quantification of the ATP present, an indicator of metabolitically active cells. ATP is quantified using a system based on luciferase and D-luciferin resulting into light generation. The luminescent signal is proportional to the number of cells present in culture.
Briefly 25 microL/well reagent solution are added to each wells and after 5 minutes shacking microplates are red by a luminometer. The luminescent signal is proportional to the number of cells present in culture.
Background: Cellular ATP, detected with luciferase, serves as a proxy for viable cell number.

SMILES strings stand for the structures.

T1 sequence (P53350 2-345): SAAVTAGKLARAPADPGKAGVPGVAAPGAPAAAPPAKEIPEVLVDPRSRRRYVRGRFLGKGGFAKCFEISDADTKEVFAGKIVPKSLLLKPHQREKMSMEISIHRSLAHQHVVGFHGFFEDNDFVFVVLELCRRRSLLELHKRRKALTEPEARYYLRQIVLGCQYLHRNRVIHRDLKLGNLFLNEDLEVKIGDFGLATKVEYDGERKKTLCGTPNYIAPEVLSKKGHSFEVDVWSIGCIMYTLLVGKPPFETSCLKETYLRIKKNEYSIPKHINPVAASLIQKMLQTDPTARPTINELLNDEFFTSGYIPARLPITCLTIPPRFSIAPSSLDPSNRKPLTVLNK

As usually defined, the IC50 is the concentration at which inhibition is half-maximal. A lower IC50 goes with higher potency. With `CN1CCN(c2ccc(C(=O)Nc3n[nH]c4c3CN(C(=O)Cc3ccccc3C(F)(F)F)C4(C)C)cc2)CC1` [Compound 44, N-(6,6-dimethyl-5-{[2-(trifluoromethyl)phenyl]acetyl}-1,4,5,6-tetrahydropyrrolo[3,4-c]pyrazol-3-yl)-4-(4-methylpiperazin-1-yl)benzamide], the IC50 on PLK-1 was found to be 75 nM; in test [1], 380 nM.
For the compound `CN1CCN(c2ccc(C(=O)Nc3n[nH]c4c3CN(C(=O)Cc3cccs3)C4(C)C)cc2)CC1` [Compound 60, N-[6,6-dimethyl-5-(2-thienylacetyl)-1,4,5,6-tetrahydropyrrolo[3,4-c]pyrazol-3-yl]-4-(4-methylpiperazin-1-yl)benzamide], the figures for the 50% inhibitory concentration (IC50) (on PLK-1; in test [1]) were 52 nM and 71 nM, respectively.
`Cc1ccc(C(=O)Nc2n[nH]c3c2CN(C(=O)Nc2c(Cl)cccc2Cl)C3(C)C)cc1` [Compound 64, N-(2,6-dichlorophenyl)-6,6-dimethyl-3-[(4-methylbenzoyl)amino]-4,6-dihydropyrrolo[3,4-c]pyrazole-5(1H)-carboxamide]: the figures for the IC50 (against PLK-1; in test [1]) were 230 nM and 209 nM, respectively.
Take `CCc1ccccc1NC(=O)N1Cc2c(NC(=O)c3ccc(N4CCN(C)CC4)cc3)n[nH]c2C1(C)C` [Compound 178, N-(2-ethylphenyl)-6,6-dimethyl-3-{[4-(4-methylpiperazin-1-yl)benzoyl]amino}-4,6-dihydropyrrolo[3,4-c]pyrazole-5(1H)-carboxamide]: the IC50 against PLK-1 came out at 96 nM; in test [1], 19 nM.
The corresponding values for `CC1(C)c2[nH]nc(NC(=O)c3cccc(N)c3)c2CN1C(=O)Nc1c(Cl)cccc1Cl` [Compound 250, 3-[(3-aminobenzoyl)amino]-N-(2,6-dichlorophenyl)-6,6-dimethyl-4,6-dihydropyrrolo[3,4-c]pyrazole-5(1H)-carboxamide] are 30 nM and 119 nM.
For `CC1(C)c2[nH]nc(NC(=O)c3ccc(N)cc3)c2CN1C(=O)Nc1c(Cl)cccc1Cl` [Compound 251, 3-[(4-aminobenzoyl)amino]-N-(2,6-dichlorophenyl)-6,6-dimethyl-4,6-dihydropyrrolo[3,4-c]pyrazole-5(1H)-carboxamide] the same measures were 24 nM and 63 nM.

These data come from patent US8227472B2, “Substituted pyrrolo-pyrazole derivatives as kinase inhibitors” (Nerviano Medical Sciences S.R.L., priority 2006, dated 2012).
